Assay results from patent publication US12662498B2 (priority 2017, dated 2026).

Test: ICH stability study of psilocybin batches (appearance, water content, purity, assay)

Q: For `CN(C)CCc1c[nH]c2cccc(OP(=O)(O)O)c12` [Batch 170231], which “Impurities by HPLC: RRT 1.62 (Psilocin)” value (T = 6 months, 2-8° C.) is on record?
A: The value was 0.35%.

Q: What about the “Impurities by HPLC: RRT 1.70” value (T = 6 months, 2-8° C.) of the same compound?
A: Its value is “LT 0.05%”.

Q: And the “Impurities by HPLC: line without printed RRT (after RRT0.69)” value (T = 6 months, 2-8° C.)?
A: The value was 0.07%.

Q: What about the “Impurity at RRT 1.89” value (T = 6 months, 2-8° C.) of the same compound?
A: The value was “LT 0.05%”.

Q: What about the “Impurity at RRT 2.45” value (T = 6 months, 2-8° C.) of the same compound?
A: Its value is “LT 0.05%”.

Q: What about the “Total Impurities” value (T = 6 months, 2-8° C.) of the same compound?
A: The value was 0.80%.

Q: And the “Water content by loss on drying” value (T = 6 months, 2-8° C.)?
A: The value was 0.06% ^w/w % w/w.

Q: And the Appearance (T = 6 months, 25° C./60% RH)?
A: The Appearance was “An off white solid”.

Q: And the “Assay by HPLC (on a dry basis)” value (T = 6 months, 25° C./60% RH)?
A: Its value is 98.04% ^w/w % w/w.

Q: What about the “Chemical Purity By HPLC” value (T = 6 months, 25° C./60% RH) of the same compound?
A: Its value is 99.19%.

Q: And the “Impurities LT 0.05%” value (T = 6 months, 25° C./60% RH)?
A: Its value is 0.34%.

Q: And the “Impurities by HPLC: RRT0.69” value (T = 6 months, 25° C./60% RH)?
A: Its value is 0.06%.

Q: What about the “Impurities by HPLC: RRT 1.49” value (T = 6 months, 25° C./60% RH) of the same compound?
A: Its value is “LT 0.05%”.

Q: And the “Impurities by HPLC: RRT 1.62 (Psilocin)” value (T = 6 months, 25° C./60% RH)?
A: Its value is 0.34%.

Q: And the “Impurities by HPLC: RRT 1.70” value (T = 6 months, 25° C./60% RH)?
A: The value was “LT 0.05%”.

Q: And the “Impurities by HPLC: line without printed RRT (after RRT0.69)” value (T = 6 months, 25° C./60% RH)?
A: The value was 0.07%.

Q: And the “Impurity at RRT 1.89” value (T = 6 months, 25° C./60% RH)?
A: Its value is “LT 0.05%”.

Q: And the “Impurity at RRT 2.45” value (T = 6 months, 25° C./60% RH)?
A: The value was “LT 0.05%”.

Q: What about the “Total Impurities” value (T = 6 months, 25° C./60% RH) of the same compound?
A: The value was 0.81%.

Q: What about the “Water content by loss on drying” value (T = 6 months, 25° C./60% RH) of the same compound?
A: The value was 0.32% ^w/w % w/w.

Q: What about the Appearance (T = 6 months, 40° C./75% RH) of the same compound?
A: The Appearance was “An off white solid”.

Q: And the “Assay by HPLC (on a dry basis)” value (T = 6 months, 40° C./75% RH)?
A: The value was 100.10% ^w/w % w/w.

Q: And the “Chemical Purity By HPLC” value (T = 6 months, 40° C./75% RH)?
A: The value was 99.12%.

Q: And the “Impurities LT 0.05%” value (T = 6 months, 40° C./75% RH)?
A: Its value is 0.36%.

Q: What about the “Impurities by HPLC: RRT0.69” value (T = 6 months, 40° C./75% RH) of the same compound?
A: The value was 0.06%.

Q: What about the “Impurities by HPLC: RRT 1.49” value (T = 6 months, 40° C./75% RH) of the same compound?
A: The value was “LT 0.05%”.

Q: What about the “Impurities by HPLC: RRT 1.62 (Psilocin)” value (T = 6 months, 40° C./75% RH) of the same compound?
A: Its value is 0.38%.

Q: What about the “Impurities by HPLC: RRT 1.70” value (T = 6 months, 40° C./75% RH) of the same compound?
A: The value was “LT 0.05%”.

Q: And the “Impurities by HPLC: line without printed RRT (after RRT0.69)” value (T = 6 months, 40° C./75% RH)?
A: The value was 0.08%.

Q: And the “Impurity at RRT 1.89” value (T = 6 months, 40° C./75% RH)?
A: The value was “LT 0.05%”.

Q: And the “Impurity at RRT 2.45” value (T = 6 months, 40° C./75% RH)?
A: The value was “LT 0.05%”.

Q: What about the “Total Impurities” value (T = 6 months, 40° C./75% RH) of the same compound?
A: The value was 0.88%.

Q: What about the “Water content by loss on drying” value (T = 6 months, 40° C./75% RH) of the same compound?
A: Its value is 2.26% ^w/w % w/w.

Q: And the Appearance (T = 9 months, 2-8° C.)?
A: Its Appearance is “An off white solid”.

Q: What about the “Assay by HPLC (on a dry basis)” value (T = 9 months, 2-8° C.) of the same compound?
A: The value was 97.53% ^w/w % w/w.

Q: And the “Chemical Purity By HPLC” value (T = 9 months, 2-8° C.)?
A: The value was 99.16%.

Q: What about the “Impurities by HPLC: RRT0.69” value (T = 9 months, 2-8° C.) of the same compound?
A: The value was “LT 0.05%”.

Q: What about the “Impurities by HPLC: RRT 1.49” value (T = 9 months, 2-8° C.) of the same compound?
A: Its value is 0.07%.

Q: What about the “Impurities by HPLC: RRT 1.62 (Psilocin)” value (T = 9 months, 2-8° C.) of the same compound?
A: Its value is 0.06%.

Q: What about the “Impurities by HPLC: RRT 1.70” value (T = 9 months, 2-8° C.) of the same compound?
A: The value was 0.37%.

Q: And the “Impurities by HPLC: line without printed RRT (after RRT0.69)” value (T = 9 months, 2-8° C.)?
A: The value was “LT 0.05%”.

Q: What about the “Impurity at RRT 1.89” value (T = 9 months, 2-8° C.) of the same compound?
A: The value was “LT 0.05%”.

Q: What about the “Impurity at RRT 2.45” value (T = 9 months, 2-8° C.) of the same compound?
A: The value was “LT 0.05%”.

Q: And the “Total Impurities” value (T = 9 months, 2-8° C.)?
A: The value was 0.84%.

Q: And the “Water content by loss on drying” value (T = 9 months, 2-8° C.)?
A: Its value is 0.21% ^w/w % w/w.

Q: And the Appearance (T = 9 months, 25° C./60% RH)?
A: Its Appearance is “An off white solid”.

Q: And the “Assay by HPLC (on a dry basis)” value (T = 9 months, 25° C./60% RH)?
A: The value was 98.12% ^w/w % w/w.

Q: And the “Chemical Purity By HPLC” value (T = 9 months, 25° C./60% RH)?
A: The value was 99.16%.

Q: What about the “Impurities by HPLC: RRT0.69” value (T = 9 months, 25° C./60% RH) of the same compound?
A: The value was “LT 0.05%”.

Q: What about the “Impurities by HPLC: RRT 1.49” value (T = 9 months, 25° C./60% RH) of the same compound?
A: Its value is 0.05%.

Q: What about the “Impurities by HPLC: RRT 1.62 (Psilocin)” value (T = 9 months, 25° C./60% RH) of the same compound?
A: Its value is 0.06%.

Q: What about the “Impurities by HPLC: RRT 1.70” value (T = 9 months, 25° C./60% RH) of the same compound?
A: Its value is 0.37%.

Q: What about the “Impurities by HPLC: line without printed RRT (after RRT0.69)” value (T = 9 months, 25° C./60% RH) of the same compound?
A: The value was “LT 0.05%”.

Q: And the “Impurity at RRT 1.89” value (T = 9 months, 25° C./60% RH)?
A: The value was “LT 0.05%”.

Q: And the “Impurity at RRT 2.45” value (T = 9 months, 25° C./60% RH)?
A: The value was “LT 0.05%”.

Q: And the “Total Impurities” value (T = 9 months, 25° C./60% RH)?
A: The value was 0.84%.

Q: What about the “Water content by loss on drying” value (T = 9 months, 25° C./60% RH) of the same compound?
A: The value was 0.10% ^w/w % w/w.

Q: And the Appearance (T = 12 months, 2-8° C.)?
A: Its Appearance is “An off white solid”.

Q: And the “Assay by HPLC (on a dry basis)” value (T = 12 months, 2-8° C.)?
A: Its value is 99.63% ^w/w % w/w.

Q: And the “Chemical Purity By HPLC” value (T = 12 months, 2-8° C.)?
A: Its value is 99.25%.

Q: What about the “Impurities LT 0.05%” value (T = 12 months, 2-8° C.) of the same compound?
A: The value was 0.38%.

Q: And the “Impurities by HPLC: RRT0.69” value (T = 12 months, 2-8° C.)?
A: Its value is “LT 0.05%”.

Q: And the “Impurities by HPLC: RRT 1.49” value (T = 12 months, 2-8° C.)?
A: The value was “LT 0.05%”.

Q: And the “Impurities by HPLC: RRT 1.62 (Psilocin)” value (T = 12 months, 2-8° C.)?
A: The value was 0.37%.

Q: And the “Impurities by HPLC: RRT 1.70” value (T = 12 months, 2-8° C.)?
A: The value was “LT 0.05%”.

Q: What about the “Impurity at RRT 1.89” value (T = 12 months, 2-8° C.) of the same compound?
A: Its value is “LT 0.05%”.

Q: What about the “Impurity at RRT 2.45” value (T = 12 months, 2-8° C.) of the same compound?
A: The value was “LT 0.05%”.

Q: What about the “Total Impurities” value (T = 12 months, 2-8° C.) of the same compound?
A: The value was 0.75%.

Q: And the “Water content by loss on drying” value (T = 12 months, 2-8° C.)?
A: Its value is 0.49% ^w/w % w/w.

Q: And the Appearance (T = 12 months, 25° C./60% RH)?
A: The Appearance was “An off white solid”.

Q: What about the “Assay by HPLC (on a dry basis)” value (T = 12 months, 25° C./60% RH) of the same compound?
A: Its value is 98.97% ^w/w % w/w.

Q: And the “Chemical Purity By HPLC” value (T = 12 months, 25° C./60% RH)?
A: Its value is 99.25%.

Q: What about the “Impurities LT 0.05%” value (T = 12 months, 25° C./60% RH) of the same compound?
A: The value was 0.38%.

Q: And the “Impurities by HPLC: RRT0.69” value (T = 12 months, 25° C./60% RH)?
A: The value was “LT 0.05%”.

Q: And the “Impurities by HPLC: RRT 1.49” value (T = 12 months, 25° C./60% RH)?
A: The value was “LT 0.05%”.

Q: And the “Impurities by HPLC: RRT 1.62 (Psilocin)” value (T = 12 months, 25° C./60% RH)?
A: The value was 0.37%.

Q: And the “Impurities by HPLC: RRT 1.70” value (T = 12 months, 25° C./60% RH)?
A: The value was “LT 0.05%”.

Q: What about the “Impurity at RRT 2.45” value (T = 12 months, 25° C./60% RH) of the same compound?
A: The value was “LT 0.05%”.

Q: What about the “Total Impurities” value (T = 12 months, 25° C./60% RH) of the same compound?
A: The value was 0.75%.

Q: What about the “Water content by loss on drying” value (T = 12 months, 25° C./60% RH) of the same compound?
A: Its value is 0.61% ^w/w % w/w.
